The values that follow come from ChEMBL document CHEMBL3046923, “Heteroaromatic analogues of 1,5-diarylpyrazole class as anti-inflammatory agents” (2012).

What all share (type): functional
Experiment [1] deals with Rattus norvegicus. Description: Anti-inflammatory activity in Rattus norvegicus Wistar albino (rat) assessed as inhibition of carrageenan-induced paw edema at 50 mg/kg, po administered for 30 min prior to carrageenan challenge measured at 3 hr relative to control. In general terms: In the carrageenan paw model, swelling and tenderness develop within hours.
Experiment [2] concerns Rattus norvegicus. As to the kind of experiment: Anti-inflammatory activity in Rattus norvegicus Wistar albino (rat) assessed as inhibition of carrageenan-induced paw edema at 50 mg/kg, po administered for 30 min prior to carrageenan challenge measured at 1 hr relative to control.
Experiment [3] has as its system Rattus norvegicus. Description: Anti-inflammatory activity in Rattus norvegicus Wistar albino (rat) assessed as inhibition of carrageenan-induced paw edema at 50 mg/kg, po administered for 30 min prior to carrageenan challenge measured at 2 hr relative to control.
Experiment [4] has as its system Rattus norvegicus. Description: Anti-inflammatory activity in Rattus norvegicus Wistar albino (rat) assessed as inhibition of carrageenan-induced paw edema at 50 mg/kg, po administered for 30 min prior to carrageenan challenge measured at 4 hr relative to control.
For experiment [5], the system named is Rattus norvegicus. Description: Anti-inflammatory activity in Rattus norvegicus Wistar albino (rat) assessed as inhibition of carrageenan-induced paw edema at 10 mg/kg, ip administered for 30 min prior to carrageenan challenge measured at 3 hr relative to control. As to conditions: route intraperitoneal.
Experiment [6] has as its system Rattus norvegicus. As to the kind of experiment: Anti-inflammatory activity in Rattus norvegicus Wistar albino (rat) assessed as inhibition of carrageenan-induced paw edema at 10 mg/kg, ip administered for 30 min prior to carrageenan challenge measured at 4 hr relative to control. As to conditions: route intraperitoneal.
Experiment [7] concerns Rattus norvegicus. As to the kind of experiment: Anti-inflammatory activity in Rattus norvegicus Wistar albino (rat) assessed as inhibition of carrageenan-induced paw edema at 10 mg/kg, ip administered for 30 min prior to carrageenan challenge measured at 1 hr relative to control. The note with it: route intraperitoneal.
Experiment [8] deals with Rattus norvegicus. Description: Anti-inflammatory activity in Rattus norvegicus Wistar albino (rat) assessed as inhibition of carrageenan-induced paw edema at 10 mg/kg, ip administered for 30 min prior to carrageenan challenge measured at 2 hr relative to control. As to conditions: route intraperitoneal.

Activity calls are given as the source filed them. The rule behind the calls is not given here.

A word on the inhibition in vivo: it is how much of the control response was suppressed. On to `NS(=O)(=O)c1ccc2nc(-n3nc(C(F)(F)F)cc3-c3ccccc3)sc2c1`, for which the inhibition in vivo at 50 mg/kg with Rattus norvegicus [1] worked out at 54%; in the experiment with Rattus norvegicus [2], 32%; in the experiment on Rattus norvegicus [3], 48%; with Rattus norvegicus [4], 17%.

In the case of `NS(=O)(=O)c1ccc2nc(-n3nc(C(F)(F)F)cc3-c3ccc(F)cc3)sc2c1`, the inhibition in vivo at 50 mg/kg with Rattus norvegicus [1] is 64%; with Rattus norvegicus [2], 54%; in the experiment with Rattus norvegicus [3], 48%; in the experiment with Rattus norvegicus [4], 50%.

For the molecule `Cc1ccc(-c2cc(C(F)(F)F)n(-c3nc4ccc(S(N)(=O)=O)cc4s3)n2)cc1`, the inhibition result with Rattus norvegicus [1], in the experiment with Rattus norvegicus [2], in the experiment on Rattus norvegicus [3] and with Rattus norvegicus [4] was “inactive” each time.

`COc1ccc2c(c1)c(CC(=O)O)c(C)n2C(=O)c1ccc(Cl)cc1` [INDOMETHACIN]: the inhibition in vivo at 10 mg/kg stood at 78% in the experiment with Rattus norvegicus [5], 75% in the experiment with Rattus norvegicus [6], 70% in the experiment with Rattus norvegicus [7] and 78% in the experiment with Rattus norvegicus [8].

For the molecule `NS(=O)(=O)c1ccc2nc(-n3nc(C(F)(F)F)cc3-c3ccc4ccccc4c3)sc2c1`, the inhibition in vivo at 50 mg/kg in the experiment on Rattus norvegicus [1] turned out to be 53%; in the experiment on Rattus norvegicus [2], 30%; in the experiment on Rattus norvegicus [3], 27%; in the experiment with Rattus norvegicus [4], 20%.

Turning to `NS(=O)(=O)c1ccc2nc(-n3nc(C(F)(F)F)cc3-c3ccco3)sc2c1`, the inhibition in vivo at 50 mg/kg with Rattus norvegicus [1] stood at 61%; in the experiment on Rattus norvegicus [2], 27%; in the experiment with Rattus norvegicus [3] it was 46%; in the experiment with Rattus norvegicus [4] it was 54%.

For `NS(=O)(=O)c1ccc2nc(-n3nc(C(F)(F)F)cc3-c3ccc(Br)cc3)sc2c1`, the inhibition in vivo at 50 mg/kg in the experiment with Rattus norvegicus [1] came to 60%; in the experiment with Rattus norvegicus [2], 45%; with Rattus norvegicus [3], 56%; in the experiment with Rattus norvegicus [4], 43%.

As to `NS(=O)(=O)c1ccc2nc(-n3nc(C(F)(F)F)cc3-c3ccc(Cl)cc3)sc2c1`, the inhibition in vivo at 50 mg/kg with Rattus norvegicus [1] came out at 61%; in the experiment with Rattus norvegicus [2], 44%; in the experiment with Rattus norvegicus [3], 42%; in the experiment on Rattus norvegicus [4] it was 42%.

In the case of `COc1ccc(-c2cc(C(F)(F)F)nn2-c2nc3ccc(S(N)(=O)=O)cc3s2)cc1`, the inhibition in vivo at 50 mg/kg came out at 60% in the experiment with Rattus norvegicus [1], 42% in the experiment with Rattus norvegicus [2], 31% in the experiment on Rattus norvegicus [3] and 53% in the experiment on Rattus norvegicus [4].

Regarding `NS(=O)(=O)c1ccc2nc(-n3nc(C(F)(F)F)cc3-c3cccs3)sc2c1`, the inhibition in vivo at 50 mg/kg in the experiment on Rattus norvegicus [1] is 49%; with Rattus norvegicus [2], 5%; in the experiment on Rattus norvegicus [3] it was 26%; in the experiment on Rattus norvegicus [4], 15%.

Turning to `Cc1ccc(-c2cc(C(F)(F)F)nn2-c2nc3ccc(S(N)(=O)=O)cc3s2)cc1`, the inhibition in vivo at 50 mg/kg is 56% with Rattus norvegicus [1], 35% in the experiment on Rattus norvegicus [2], 38% in the experiment on Rattus norvegicus [3] and 52% in the experiment with Rattus norvegicus [4].
